Measured values published in paper PMC10661773, “Cytotoxic pathways activated by multifunctional thiosemicarbazones targeting sigma-2 receptors in breast and lung carcinoma cells” (Pharmacological Reports, 2023).

Tests used:
[1] = tested on: caspase 7 in MCF7 cells; experiment: Caspase 7 activity, fluorimetric; type: cell-based, human; conditions: MCF7, 2 h, 50 µM
Protocol: (§1) Activation of caspase 3, caspase 7 and caspase 9 was measured using the Caspase 3/7 Fluorescence Assay kit (Cayman Chemical, Ann Arbor, MI; #10,009,135) and the Caspase 9 fluorimetric assay kit (Enzo Life Science, Roma, Italy; #ALX-850-224). The results were expressed as nmoles of the hydrolyzed substrate of each caspase/mg cellular proteins, according to a previously set titration curve.

[2] = tested on: caspase 7 in A549 cells; experiment: Caspase 7 activity, fluorimetric; type: cell-based, human; conditions: A549, 2 h, 50 µM
Protocol: as §1

## CN(C)C(=S)N/N=C1\C(=O)N(CCCCN2CCC3(CC2)OCc2ccccc23)c2ccccc21 [FA4, (Z)-2-(1-(4-(3H-spiro[isobenzofuran-1,4′-piperidine]-1′-yl)butyl)-2-oxoindolin-3-ylidene)-N,N-dimethylhydrazinecarbothioamide]
[1]
  Caspase 7 activation: activate
[2]
  Caspase 7 activation: activate
